# From patent publication US7683171B2, “1H-imidazo[4,5-d]thieno[3,2-b]pyridine based tricyclic compounds and pharmaceutical compositions comprising same” (Bristol-Myers Squibb Company, priority 2005, dated 2010)
# System: T98
# Assay: Ames testing
# Type: cell-based
# Settings: T98 with S9 activation
compound,measurement,value
"Cl.Cn1cnc2c(N)nc3cc(-c4cccc(F)c4)sc3c21 [Example A5, 7-(3-Fluorophenyl)-1-methyl-1H-imidazo[4,5-d]thieno[3,2-b]pyridin-4-amine hydrochloride salt]",Ames testing,positive
